From PubChem BioAssay (NCI) come the findings set out here.

Molecules are shown by their SMILES.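 Where inhibition never reached the appropriate level, the endpoint shown equals the highest concentration tested. Otherwise, values were interpolated linearly from a five-concentration, 48-hour dose response in 96-well plates. GI50 = concentration required for 50% inhibition of growth. TGI denotes the concentration required for complete inhibition of growth.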

For one assay, the system named is LXFL 529 NSCLC. Description: NCI anticancer screen, dose series, 48 h.
In turn, `CCCCCCCCCCCC1CC(=O)NCCCN(C)CCCCN(C)CCCN1C` (stereo not drawn) gave a TGI of 3.16 µM.

For a further assay, the system named is T-47D breast. Kind of assay: NCI anticancer screen, dose series, 48 h.
As to `COc1ccc(Oc2cnn(C(Br)(Br)C(C)=O)c(=O)c2Br)cc1`, the TGI amounted to 61 µM.

For `O=S1(=O)c2cnccc2NC(=NCc2ccccc2)N1c1ccccc1`, the TGI was more than 100 µM.

On to `CN(C)CCCNC(=O)c1c(O)c2ccccc2n(C)c1=O`, for which the TGI was more than 100 µM.

On to `COc1ccc(-n2nc(C)c3c(Nc4ccc(NC(=O)Nc5ccc(Cl)c(C(F)(F)F)c5)cc4)ncnc32)cc1`, for which the GI50 was 1.71 µM and the TGI worked out at 5.41 µM.

`C[C@]12CC[C@@H]3c4ccc(O)cc4CC[C@H]3[C@@H]1C/C(=C\c1ccc(C#N)cc1)C2=O`: the TGI was more than 100 µM.

Consider `CC1(C)CC(C#Cc2ccccc2)CC(C)(C)N1O`, for which the TGI amounted to 63.8 µM.

As for `Cc1cc(O)c(-c2cc(O)c(C)cc2O)cc1O`, the TGI is 5.26 µM.

The compound `O=C(O)CN(CC(=O)O)C(C(=O)O)c1ccccc1` (stereo not drawn) came in with a TGI of more than 100 µM.

`CCNc1ncnc2sc(SCc3ccccc3)nc12` gave a TGI of more than 100 µM.

On to `S=C1NC2=C(CSC/C2=C\c2ccccc2)C(c2ccccc2)N1` (stereo not drawn), for which the TGI is more than 100 µM.

Compound `O=C(OCC1OC(n2nc(Cn3nnc(-c4cccnc4)n3)n(-c3cccc4ccccc34)c2=S)C(OC(=O)c2ccccc2)C1OC(=O)c1ccccc1)c1ccccc1` (stereo not drawn) gave a TGI of more than 100 µM.

`CCN1C(=O)C(=C/C=C/c2ccc(N(CC)CC)cc2)C(=O)N(CC)C1=S` came in with a TGI of more than 100 µM.

In turn, `CC(C)C1=C(O)C2=C(C(=O)C1=O)C1(C)CCCC(C)(C)C1C(O)C2OC=O` (stereo not drawn) yielded a TGI of 27.9 µM.

`CC(C)[Si](OC/C(=C/COC(C)(C)C)[C@H]1CC=C(C(=O)c2ccccc2N2CN(C)C(=O)N(C)C2)C1)(C(C)C)C(C)C` came in with a TGI of 23.6 µM.

The compound `COc1ccc2c(c1)c(=O)c1c(NCCNCCO)ccc3c(=O)n(CCN(C)C)c(=O)n2c31` yielded a TGI of 0.541 µM.

Consider `CC(C)N1CN(c2ccccc2)C2(CCN(CCCC(=O)c3ccc(F)cc3)CC2)C1=O`, for which the TGI is 40.8 µM.

The compound `CC(C)=CCC[C@@H](C)C1=C(O)C(N)=C(C)C(=O)C1=O` came in with a TGI of more than 88.4 µM.

In turn, `CCOC(=O)C1=CC(C)(C(=O)OCC)Nc2c(nc(N)[nH]c2=O)N1` (stereo not drawn) yielded a TGI of more than 10 µM.

The subject of the next assay is XF 498 CNS. Description: NCI anticancer screen, dose series, 48 h.
`N#C/C(=C1\SC(N=Nc2ccc(Cl)cc2)C(=O)N1c1ccccc1)c1nc2ccccc2[nH]1` (stereo not drawn) registered a TGI of 84.8 µM.

Regarding `O=C(NN1C(=O)CSC1c1cccc(F)c1)c1ccncc1` (stereo not drawn), the TGI is more than 100 µM.

`Cc1ccc2oc(=O)c(-c3ccccc3)nc2c1`: the TGI was more than 100 µM.

Regarding `O=C(O)/C=C\C(=O)Nc1ccc(S(=O)(=O)c2ccc(NC(=O)/C=C\C(=O)O)cc2)cc1`, the TGI is more than 100 µM.

`CSc1nc2c(ncn2C2OC(CO)C(O)C(O)C2O)c(=O)[nH]1` (stereo not drawn) displayed a TGI of more than 100 µM.

As for `Nc1ccccc1C(=O)C(Br)C(Br)c1ccc2c(c1)OCO2` (stereo not drawn), the TGI is 34 µM.

`CCCCCCCCCCCC1CC(=O)NCCCN(C)CCCCN(C)CCCN1C` (stereo not drawn) registered a TGI of 3.08 µM.

As to `COc1cc(C2c3cc4c(cc3[C@@H](Nc3ccc5c(c3)OCO5)C3COC(=O)[C@H]23)OCO4)cc(OC)c1O` (stereo partly drawn), the TGI came to 16.7 µM.

The test system of the next assay is NCI-H23 lung. Kind of assay: NCI anticancer screen, dose series, 48 h.
For `N#C/C(=C1\SC(N=Nc2ccc(Cl)cc2)C(=O)N1c1ccccc1)c1nc2ccccc2[nH]1` (stereo not drawn), the TGI worked out at 65.8 µM.

As for `O=C(NN1C(=O)CSC1c1cccc(F)c1)c1ccncc1` (stereo not drawn), the TGI is more than 100 µM.

`c1ccc2[nH]c(CNc3ccc(C4C[Se]N=N4)cc3)nc2c1` (stereo not drawn) showed a TGI of more than 100 µM.

Compound `COc1ccc(Oc2cnn(C(Br)(Br)C(C)=O)c(=O)c2Br)cc1` returned a TGI of 39 µM.

Compound `O=S1(=O)c2cnccc2NC(=NCc2ccccc2)N1c1ccccc1` showed a TGI of more than 100 µM.

`Cc1ccc2oc(=O)c(-c3ccccc3)nc2c1` showed a TGI of 90.7 µM.

`O=C(O)/C=C\C(=O)Nc1ccc(S(=O)(=O)c2ccc(NC(=O)/C=C\C(=O)O)cc2)cc1` displayed a TGI of more than 100 µM.

The compound `CN(C)CCCNC(=O)c1c(O)c2ccccc2n(C)c1=O` gave a TGI of more than 100 µM.

Take `COc1ccc(-n2nc(C)c3c(Nc4ccc(NC(=O)Nc5ccc(Cl)c(C(F)(F)F)c5)cc4)ncnc32)cc1`: the GI50 is 1.69 µM and the TGI came to 3.95 µM.

In the case of `C[C@]12CC[C@@H]3c4ccc(O)cc4CC[C@H]3[C@@H]1C/C(=C\c1ccc(C#N)cc1)C2=O`, the TGI was more than 100 µM.

Regarding `CC1(C)CC(C#Cc2ccccc2)CC(C)(C)N1O`, the TGI was 35.2 µM.

`Cc1cc(O)c(-c2cc(O)c(C)cc2O)cc1O` displayed a TGI of 38.9 µM.

On to `O=C(O)CN(CC(=O)O)C(C(=O)O)c1ccccc1` (stereo not drawn), for which the TGI is more than 100 µM.

`CCNc1ncnc2sc(SCc3ccccc3)nc12` showed a TGI of more than 100 µM.

For the compound `S=C1NC2=C(CSC/C2=C\c2ccccc2)C(c2ccccc2)N1` (stereo not drawn), the TGI was more than 100 µM.

On to `O=C(OCC1OC(n2nc(Cn3nnc(-c4cccnc4)n3)n(-c3cccc4ccccc34)c2=S)C(OC(=O)c2ccccc2)C1OC(=O)c1ccccc1)c1ccccc1` (stereo not drawn), for which the TGI was more than 100 µM.

Regarding `COc1ccc(/C=N/n2c(C)nc3c(sc(=S)n3-c3ccccc3)c2=O)cc1`, the TGI is more than 100 µM.

In turn, `CCN1C(=O)C(=C/C=C/c2ccc(N(CC)CC)cc2)C(=O)N(CC)C1=S` returned a TGI of more than 100 µM.

With `CSc1nc2c(ncn2C2OC(CO)C(O)C(O)C2O)c(=O)[nH]1` (stereo not drawn), the TGI is more than 100 µM.

The compound `Nc1ccccc1C(=O)C(Br)C(Br)c1ccc2c(c1)OCO2` (stereo not drawn) returned a TGI of 47.4 µM.

In turn, `CC(C)C1=C(O)C2=C(C(=O)C1=O)C1(C)CCCC(C)(C)C1C(O)C2OC=O` (stereo not drawn) had a TGI of 20.5 µM.

`CCCCCCCCCCCC1CC(=O)NCCCN(C)CCCCN(C)CCCN1C` (stereo not drawn) had a TGI of 3.12 µM.

`CC(C)[Si](OC/C(=C/COC(C)(C)C)[C@H]1CC=C(C(=O)c2ccccc2N2CN(C)C(=O)N(C)C2)C1)(C(C)C)C(C)C` displayed a TGI of 30 µM.

`COc1cc(C2c3cc4c(cc3[C@@H](Nc3ccc5c(c3)OCO5)C3COC(=O)[C@H]23)OCO4)cc(OC)c1O` (stereo partly drawn) registered a TGI of 4.07 µM.

Compound `COc1ccc2c(c1)c(=O)c1c(NCCNCCO)ccc3c(=O)n(CCN(C)C)c(=O)n2c31` yielded a TGI of 0.271 µM.

The compound `CC(C)N1CN(c2ccccc2)C2(CCN(CCCC(=O)c3ccc(F)cc3)CC2)C1=O` came in with a TGI of 28.1 µM.

As for `CC(C)=CCC[C@@H](C)C1=C(O)C(N)=C(C)C(=O)C1=O`, the TGI was more than 100 µM.

As for `CCOC(=O)C1=CC(C)(C(=O)OCC)Nc2c(nc(N)[nH]c2=O)N1` (stereo not drawn), the TGI was more than 10 µM.

Another assay relates to TK-10 renal. Description: NCI anticancer screen, dose series, 48 h.
Compound `N#C/C(=C1\SC(N=Nc2ccc(Cl)cc2)C(=O)N1c1ccccc1)c1nc2ccccc2[nH]1` (stereo not drawn) registered a TGI of 61.6 µM.

For the compound `O=C(NN1C(=O)CSC1c1cccc(F)c1)c1ccncc1` (stereo not drawn), the TGI is more than 100 µM.

`c1ccc2[nH]c(CNc3ccc(C4C[Se]N=N4)cc3)nc2c1` (stereo not drawn) had a TGI of more than 100 µM.

Take `COc1ccc(Oc2cnn(C(Br)(Br)C(C)=O)c(=O)c2Br)cc1`: the TGI worked out at 26.3 µM.

Consider `O=S1(=O)c2cnccc2NC(=NCc2ccccc2)N1c1ccccc1`, for which the TGI was more than 100 µM.

`Cc1ccc2oc(=O)c(-c3ccccc3)nc2c1` showed a TGI of more than 100 µM.
